“And” between values parts separate entries of the source, which are not always exact repeats. Identical values can stand only once. Inconclusive results and toxic doses are left out.
Test system: L1210 leukemia ip in BDF1 mice, survival T/C
Test: NCI In Vivo Anticancer Drug Screen. Data for tumor model L1210 Leukemia (intraperitoneal) in B6D2F1 (BDF1) mice
Conditions: endpoint: mean survival time, higher = longer survival
Outline: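 Tumor was transplanted into mice, which were then dosed with test compound or vehicle alone. Survival was recorded for each group, and the treated figure was expressed relative to the control figure.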

[1] = dose: 100.0 mg/kg/injection, schedule: Q01DX009 (ip), vehicle: Klucel (hydroxypropylcellulose) (HPC)
[2] = dose: 100.0 mg/kg/injection, schedule: Q04DX003 (ip), vehicle: Klucel (hydroxypropylcellulose) (HPC)
[3] = dose: 200.0 mg/kg/injection, schedule: Q01DX009 (ip), vehicle: Klucel (hydroxypropylcellulose) (HPC)
[4] = dose: 200.0 mg/kg/injection, schedule: Q04DX003 (ip), vehicle: Klucel (hydroxypropylcellulose) (HPC)
[5] = dose: 400.0 mg/kg/injection, schedule: Q01DX009 (ip), vehicle: Klucel (hydroxypropylcellulose) (HPC)
[6] = dose: 400.0 mg/kg/injection, schedule: Q04DX003 (ip), vehicle: Klucel (hydroxypropylcellulose) (HPC)
[7] = dose: 100.0 mg/kg/injection, schedule: Q01DX009 (ip), vehicle: saline with Tween-80
[8] = dose: 200.0 mg/kg/injection, schedule: Q01DX009 (ip), vehicle: saline with Tween-80
[9] = dose: 100.0 mg/kg/injection, schedule: Q01DX001 (ip), vehicle: saline
[10] = dose: 200.0 mg/kg/injection, schedule: Q01DX001 (ip), vehicle: saline
[11] = dose: 100.0 mg/kg/injection, schedule: Q01DX001 (ip), vehicle: carboxymethylcellulose (CMC)
[12] = dose: 200.0 mg/kg/injection, schedule: Q01DX001 (ip), vehicle: carboxymethylcellulose (CMC)
[13] = dose: 400.0 mg/kg/injection, schedule: Q01DX001 (ip), vehicle: carboxymethylcellulose (CMC)
[14] = dose: 25.0 mg/kg/injection, schedule: Q01DX009 (ip), vehicle: Klucel (hydroxypropylcellulose) (HPC)
[15] = dose: 50.0 mg/kg/injection, schedule: Q01DX009 (ip), vehicle: Klucel (hydroxypropylcellulose) (HPC)
[16] = dose: 100.0 mg/kg/injection, schedule: Q04DX002 (ip), vehicle: Klucel (hydroxypropylcellulose) (HPC)
[17] = dose: 100.0 mg/kg/injection, schedule: Q01DX009 (ip), vehicle: saline
[18] = dose: 100.0 mg/kg/injection, schedule: Q04DX003 (ip), vehicle: saline
[19] = dose: 200.0 mg/kg/injection, schedule: Q01DX009 (ip), vehicle: saline
[20] = dose: 200.0 mg/kg/injection, schedule: Q04DX003 (ip), vehicle: saline
[21] = dose: 400.0 mg/kg/injection, schedule: Q01DX009 (ip), vehicle: saline
[22] = dose: 400.0 mg/kg/injection, schedule: Q04DX003 (ip), vehicle: saline
[23] = dose: 25.0 mg/kg/injection, schedule: Q01DX009 (ip), vehicle: saline
[24] = dose: 50.0 mg/kg/injection, schedule: Q01DX009 (ip), vehicle: saline

For CCCCn1c(=S)[nH]c2ccccc2c1=O, the T/C [1] was 100 % of control, the T/C [2] was 98 % of control and the T/C [3] was 94 % of control. For the same molecule, the T/C [4] was 95 % of control, the T/C [5] was 96 % of control and the T/C [6] was 92 % of control.
With Cc1cn[nH]c1-c1ccccc1 the T/C (dose: 50.0 mg/kg/injection, schedule: Q04DX003 (ip), vehicle: Klucel (hydroxypropylcellulose) (HPC)) was 107 % of control, the T/C [2] was 104 % of control and the T/C [4] was 94 % of control.
For COc1cc(/C=C/C=C/C(=O)N2CCCCC2)ccc1O, the T/C [7] was 88 % of control and the T/C [8] was 92 % of control.
O=CC1CC2CCC1C2 (configuration not stated) was tested, and the T/C [9] was 116 % of control, the T/C [10] was 91 % of control and the T/C (dose: 400.0 mg/kg/injection, schedule: Q01DX001 (ip), vehicle: saline) was 96 % of control.
With Cc1ccc(S(=O)(=O)NC(=O)NCc2cccc(Cl)c2)cc1 the T/C [1] was 101 % of control, the T/C [3] was 101 % of control and the T/C [5] was 96 % of control.
For Cc1cc(C)c(NC(=O)c2ccccc2F)cc1C, the T/C [1] was 101 % of control, the T/C [3] was 100 % of control and the T/C [5] was 97 % of control.
With CSc1nc(C)c(C=O)s1 the T/C [11] was 100 % of control, the T/C [12] was 96 % of control and the T/C [13] was 94 % of control.
CC12CCC3C(CCC4CC(O)CCC43C)C1CCCC2=O (configuration not stated) was tested, and the T/C (dose: 75.0 mg/kg/injection, schedule: Q04DX003 (sc), vehicle: steriod suspending solution) was 102 % of control, the T/C (dose: 150.0 mg/kg/injection, schedule: Q04DX003 (sc), vehicle: steriod suspending solution) was 93 % of control and the T/C (dose: 300.0 mg/kg/injection, schedule: Q04DX003 (sc), vehicle: steriod suspending solution) was 91 % of control.
CNC(c1ccccc1)C(O)c1ccccc1 (configuration not stated) was tested, and the T/C [14] was 106 % of control, the T/C [15] was 95 % of control and the T/C [1] was 106 % of control. The T/C [2] was 97 % of control.
In the case of CC1CN(Cc2ccccc2)C(=S)NC1=O (configuration not stated), the T/C (dose: 25.0 mg/kg/injection, schedule: Q01DX Z (ip), vehicle: methylcellulose (MC)) is reported as 89 % of control and the T/C (dose: 50.0 mg/kg/injection, schedule: Q01DX Z (ip), vehicle: methylcellulose (MC)) is reported as 98 % of control.
In the case of O=S(c1ccc(O)cc1)c1ccc(O)cc1, the T/C (dose: 100.0 mg/kg/injection, schedule: Q04DX003 (ip), vehicle: saline with Tween-80) is reported as 99 % of control, the T/C (dose: 200.0 mg/kg/injection, schedule: Q04DX003 (ip), vehicle: saline with Tween-80) is reported as 94 % of control and the T/C (dose: 400.0 mg/kg/injection, schedule: Q04DX003 (ip), vehicle: saline with Tween-80) is reported as 101 % of control.
CCCCCCC[n+]1cccc(C#N)c1 was tested, and the T/C (dose: 37.5 mg/kg/injection, schedule: Q04DX003 (ip), vehicle: saline) was 96 % of control, the T/C (dose: 75.0 mg/kg/injection, schedule: Q01DX001 (ip), vehicle: saline) was 96 % of control and the T/C (dose: 75.0 mg/kg/injection, schedule: Q04DX003 (ip), vehicle: saline) was 98 % of control. The T/C (dose: 150.0 mg/kg/injection, schedule: Q01DX001 (ip), vehicle: saline) was 100 % of control and the T/C (dose: 150.0 mg/kg/injection, schedule: Q04DX003 (ip), vehicle: saline) was 95 % of control.
NCCCCC(=O)NC(CCCCNC(=O)OCc1ccccc1)C(=O)NCCCCC(=O)NC(CCCCNC(=O)OCc1ccccc1)C(=O)NCCCCC(=O)NC(CCCCNC(=O)OCc1ccccc1)C(=O)NCCCCC(=O)NC(CCCCNC(=O)OCc1ccccc1)C(=O)NCCCCC(=O)NC(CCCCNC(=O)OCc1ccccc1)C(=O)O (configuration not stated) was tested, and the T/C [9] was 90 % of control.
In the case of O=C1NC2C3C=CC(C3)C12 (configuration not stated), the T/C (dose: 25.0 mg/kg/injection, schedule: Q04DX002 (ip), vehicle: Klucel (hydroxypropylcellulose) (HPC)) is reported as 114 % of control, the T/C (dose: 50.0 mg/kg/injection, schedule: Q04DX002 (ip), vehicle: Klucel (hydroxypropylcellulose) (HPC)) is reported as 93 % of control and the T/C [16] is reported as 119 % of control and 86 % of control.
In the case of Nc1ccc(S(=O)(=O)CI)cc1, the T/C [11] is reported as 100 % of control and the T/C [12] is reported as 92 % of control.
For CCCCCCCCCCCCCCCC(C1CCCC1)C1CCCC1, the T/C (dose: 75.0 mg/kg/injection, schedule: Q01DX001 (ip), vehicle: saline with Tween-80) was 99 % of control, the T/C (dose: 150.0 mg/kg/injection, schedule: Q01DX001 (ip), vehicle: saline with Tween-80) was 97 % of control and the T/C (dose: 300.0 mg/kg/injection, schedule: Q01DX001 (ip), vehicle: saline with Tween-80) was 101 % of control.
Cc1cccc(OCCOC(=O)Nc2ccccc2C(F)(F)F)c1 was tested, and the T/C [2] was 87 % of control, the T/C [4] was 88 % of control and the T/C [6] was 90 % of control.
For O=[N+]([O-])c1cc(S(=O)(=O)c2ccc(Cl)c([N+](=O)[O-])c2)ccc1Cl, the T/C [14] was 92 % of control, the T/C [15] was 92 % of control and the T/C [1] was 90 % of control. The T/C [3] was 92 % of control and the T/C [5] was 87 % of control.
With O=C(Nc1cccc(C(F)(F)F)c1)N(C1CCCCC1)C1CCCCC1 the T/C [1] was 92 % of control, the T/C [3] was 87 % of control and the T/C [5] was 87 % of control.
In the case of CC1CSCC(C)O1 (configuration not stated), the T/C (dose: 50.0 mg/kg/injection, schedule: Q01DX009 (ip), vehicle: saline with Tween-80) is reported as 95 % of control, the T/C [7] is reported as 284 % of control and the T/C [8] is reported as 95 % of control.
With NC(=O)N1OCC(N)C1=O (configuration not stated) the T/C [17] was 101 % of control, the T/C [18] was 108 % of control and the T/C [19] was 87 % of control. The T/C [20] was 98 % of control, the T/C [21] was 95 % of control and the T/C [22] was 97 % of control.
With NC(=O)C(O)C(Br)(Br)Br (configuration not stated) the T/C [17] was 94 % of control, the T/C [18] was 97 % of control and the T/C [19] was 95 % of control. The T/C [20] was 93 % of control, the T/C [21] was 90 % of control and the T/C [22] was 97 % of control.
In the case of OC(CNc1ccc(Cl)cc1)CN1CCOCC1 (configuration not stated), the T/C [18] is reported as 96 % of control and the T/C [20] is reported as 89 % of control.
CN(C)CCN=C(Nc1ccccn1)Nc1ccccn1 was tested, and the T/C (dose: 12.5 mg/kg/injection, schedule: Q01DX001 (ip), vehicle: saline) was 113 % of control, the T/C (dose: 25.0 mg/kg/injection, schedule: Q01DX001 (ip), vehicle: saline) was 104 % of control and the T/C [23] was 110 % of control. The T/C (dose: 25.0 mg/kg/injection, schedule: Q04DX003 (ip), vehicle: saline) was 100 % of control, the T/C (dose: 50.0 mg/kg/injection, schedule: Q01DX001 (ip), vehicle: saline) was 113 % of control and the T/C [24] was 100 % of control. The T/C (dose: 50.0 mg/kg/injection, schedule: Q04DX003 (ip), vehicle: saline) was 95 % of control, the T/C [9] was 97 % of control and the T/C [17] was 97 % of control. The T/C [18] was 113 % of control.
In the case of COc1ccc(N2C(=O)CCC2=S)cc1, the T/C (dose: 50.0 mg/kg/injection, schedule: Q01DX001 (ip), vehicle: carboxymethylcellulose (CMC)) is reported as 104 % of control, the T/C [11] is reported as 96 % of control and the T/C [12] is reported as 102 % of control. The T/C [13] was 102 % of control.
For Cc1cc(N(CCOS(C)(=O)=O)CCOS(C)(=O)=O)ccc1C=Nc1cccc(C(=O)O)c1, the T/C (dose: 2.5 mg/kg/injection, schedule: Q04DX003 (ip), vehicle: Klucel (hydroxypropylcellulose) (HPC)) was 111 % of control, the T/C (dose: 5.0 mg/kg/injection, schedule: Q04DX003 (ip), vehicle: Klucel (hydroxypropylcellulose) (HPC)) was 113 % of control and the T/C (dose: 10.0 mg/kg/injection, schedule: Q04DX003 (ip), vehicle: Klucel (hydroxypropylcellulose) (HPC)) was 122 % of control. For the same molecule, the T/C (dose: 20.0 mg/kg/injection, schedule: Q04DX003 (ip), vehicle: Klucel (hydroxypropylcellulose) (HPC)) was 120 % of control and the T/C (dose: 40.0 mg/kg/injection, schedule: Q04DX003 (ip), vehicle: Klucel (hydroxypropylcellulose) (HPC)) was 115 % of control.
For CC[n+]1ccc2cc(OC)c(OC)cc2c1Cc1ccc(OC)c(OC)c1, the T/C [23] was 94 % of control, the T/C [24] was 115 % of control and the T/C [18] was 98 % of control.
In the case of CCOC(=O)Nc1cc(NC(c2ccccc2)c2ccccc2)c([N+](=O)[O-])c(NC/C(C)=N/NC(N)=O)n1, the T/C [11] is reported as 95 % of control, the T/C [12] is reported as 93 % of control and the T/C [13] is reported as 89 % of control.
With Nc1c(Br)cc(I)cc1C(=O)O the T/C [16] was 108 % of control, the T/C (dose: 200.0 mg/kg/injection, schedule: Q04DX002 (ip), vehicle: Klucel (hydroxypropylcellulose) (HPC)) was 93 % of control and the T/C (dose: 400.0 mg/kg/injection, schedule: Q04DX002 (ip), vehicle: Klucel (hydroxypropylcellulose) (HPC)) was 104 % of control.
NC(=O)Cc1csc2ccccc12 was tested, and the T/C [9] was 101 % of control and the T/C [10] was 106 % of control.

From PubChem BioAssay AID248 (DTP/NCI, 2004)
